The values that follow come from patent US20060063789A1, “Aminobenzamide derivatives as glycogen synthase kinase 3 beta inhibitors” (priority 2001, published 2006).

One data set has as its target GSK3β (Homo sapiens, UniProt P49841). As to the kind of experiment: GSK3beta assay (SPA, biotinylated phosphorylated CREB peptide, ATP-P33). It is filed as biochemical. To be noted: −log IC50 (M); 19 nM GSK3β, 5 μM biotinylated phosphorylated CREB peptide, 1 μM ATP, 25° C., one hour. How it is done:
GSK3beta assays were performed at 25° C. in a 100 μl reaction volume of 25 mM Tris (pH 7.4) containing 10 mM MgCl2, 1 mM DTT, 0.1 mg/ml BSA, 5% glycerol and containing 19 nM GSK3β, 5 μM biotinylated phosphorylated CREB peptide, 1 μM ATP, 2 nM ATP-P^33 and a suitable amount of a test compound of formula (I) or (I′). After one hour, the reaction was terminated by adding 70 μl of Stop mix (1 mM ATP, 18 mg/ml streptavidin coated PVT SPA bead pH 11.0). The beads to which the phosphorylated CREB peptide is attached were allowed to settle for 30 minutes and the radioactivity of the beads was counted in a microtiterplate scintillation counter and compared with the results obtained in a control experiment (without the presence of a test compound) in order to determine the percentage of GSK3β inhibition. The IC50 value, i.e. the concentration (M) of the test compound at which 50 % of GSK3β is inhibited, was calculated from the dose response curve obtained by performing the above-described GSK3β assay in the presence of different amounts of the test compound.
Table 4 lists pIC50 values (−log IC50 (M)) obtained in the above-described test for the present compounds.

Sequence of GSK3β (P49841 whole entry, species assumed): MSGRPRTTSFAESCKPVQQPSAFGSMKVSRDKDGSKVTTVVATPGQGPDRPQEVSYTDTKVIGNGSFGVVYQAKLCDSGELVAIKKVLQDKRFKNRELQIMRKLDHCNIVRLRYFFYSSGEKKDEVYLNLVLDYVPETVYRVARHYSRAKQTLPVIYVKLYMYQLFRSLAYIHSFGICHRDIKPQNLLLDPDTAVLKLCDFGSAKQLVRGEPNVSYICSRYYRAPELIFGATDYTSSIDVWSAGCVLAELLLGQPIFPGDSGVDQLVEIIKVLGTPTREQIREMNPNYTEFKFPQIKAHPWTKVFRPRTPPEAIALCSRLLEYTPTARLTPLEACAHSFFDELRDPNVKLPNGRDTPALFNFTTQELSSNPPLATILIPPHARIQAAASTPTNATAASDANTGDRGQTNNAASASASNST

As usually defined, the IC50 is the concentration that gives 50% inhibition. The low end stands for greater potency, the high end for weaker potency. The compound `NC(=O)c1cccc(Nc2ncc([N+](=O)[O-])c(NCc3ccccc3)n2)c1` [Compound 1] had an IC50 on GSK3β of 1.82e-07 M.

What is called melting point is the temperature of the solid-liquid transition. Take `NC(=O)c1cccc(Nc2ncc(Br)c(OCc3ccccc3)n2)c1` [Compound 4]: the melting point was 216 to 217 °C. For the same compound, the IC50 at GSK3β is 5.25e-08 M.

Turning to `N#Cc1cnc(Nc2cccc(C(N)=O)c2)nc1OCc1ccccc1` [Compound 9, 3-[[5-cyano-4-(phenylmethoxy)-2-pyrimidinyl]amino]-benzamide], the melting point fell in the range of 260 to 261 °C. The same compound showed an IC50 against GSK3β of 1.82e-08 M.

For the compound `NC(=O)c1cccc(Nc2nccc(OCc3ccccc3)n2)c1` [Compound 17], inhibition against GSK3β was half-maximal at 1.41e-06 M (IC50).

For the compound `NC(=O)c1ccc(Nc2ncc(Br)c(OCc3ccccc3)n2)cc1` [Compound 22, 4-[[5-bromo-4-(phenylmethoxy)-2-pyrimidinyl]amino]-benzamide], the IC50 against GSK3β is 6.46e-08 M.

As to `N#Cc1cnc(Nc2ccc(C(N)=O)cc2)nc1OCc1ccccc1` [Compound 23, 4-[[5-cyano-4-(phenylmethoxy)-2-pyrimidinyl]amino]-benzamide], the IC50 against GSK3β was 2.19e-08 M.
